From ChEMBL document CHEMBL4393697, “Lipophilic efficient phenylthiazoles with potent undecaprenyl pyrophosphatase inhibitory activity” (Eur J Med Chem, 2019)
Converted amounts (≈) assume the structure as drawn.

System: Staphylococcus aureus
Assay: Antibacterial activity against Staphylococcus aureus NRS107 assessed as reduction in bacterial cell growth incubated for 18 to 20 hrs by broth microdilution method
Type: functional
Conditions: not given

Row | SMILES | MIC
1 | C/C(=N\NC(=N)N)c1sc(-c2ccc(C#Cc3ccc(C)s3)cc2)nc1C | 4 µg/mL (≈ 10.2 µM)

System: Staphylococcus aureus
Assay: Antibacterial activity against methicillin resistant Staphylococcus aureus USA400 assessed as reduction in bacterial cell growth incubated for 18 to 20 hrs by broth microdilution method
Type: functional
Conditions: not given

Row | SMILES | MIC
2 | C/C(=N\NC(=N)N)c1sc(-c2ccc(C#Cc3ccc(C)s3)cc2)nc1C | 2 µg/mL (≈ 5.08 µM)

System: Staphylococcus aureus
Assay: Antibacterial activity against methicillin-resistant Staphylococcus aureus USA300 assessed as reduction in bacterial cell growth incubated for 18 to 20 hrs by broth microdilution method
Type: functional
Conditions: not given

Row | SMILES | MIC
3 | C/C(=N\NC(=N)N)c1sc(-c2ccc(C#Cc3ccc(C)s3)cc2)nc1C | 8 µg/mL (≈ 20.3 µM)

System: Staphylococcus aureus
Assay: Antibacterial activity against methicillin resistant Staphylococcus aureus NRS119 assessed as reduction in bacterial cell growth incubated for 18 to 20 hrs by broth microdilution method
Type: functional
Conditions: not given

Row | SMILES | MIC
4 | C/C(=N\NC(=N)N)c1sc(-c2ccc(C#Cc3ccc(C)s3)cc2)nc1C | 4 µg/mL (≈ 10.2 µM)

System: Staphylococcus aureus
Assay: Antibacterial activity against vancomycin resistant Staphylococcus aureus VRS10 assessed as reduction in bacterial cell growth incubated for 18 to 20 hrs by broth microdilution method
Type: functional
Conditions: not given

Row | SMILES | MIC
5 | C/C(=N\NC(=N)N)c1sc(-c2ccc(C#Cc3ccc(C)s3)cc2)nc1C | 4 µg/mL (≈ 10.2 µM)

System: Staphylococcus aureus
Assay: Antibacterial activity against Staphylococcus aureus ATCC 6538 assessed as reduction in bacterial cell growth incubated for 18 to 20 hrs by broth microdilution method
Type: functional
Conditions: not given

Row | SMILES | MIC
6 | C/C(=N\NC(=N)N)c1sc(-c2ccc(C#Cc3ccc(C)s3)cc2)nc1C | 4 µg/mL (≈ 10.2 µM)

System: Staphylococcus epidermidis
Assay: Antibacterial activity against methicillin resistant Staphylococcus epidermidis NRS101 assessed as reduction in bacterial cell growth incubated for 18 to 20 hrs by broth microdilution method
Type: functional
Conditions: not given

Row | SMILES | MIC
7 | C/C(=N\NC(=N)N)c1sc(-c2ccc(C#Cc3ccc(C)s3)cc2)nc1C | 4 µg/mL (≈ 10.2 µM)

System: Staphylococcus aureus
Assay: Antibacterial activity against vancomycin resistant Staphylococcus aureus VRS12 assessed as reduction in bacterial cell growth incubated for 18 to 20 hrs by broth microdilution method
Type: functional
Conditions: not given

Row | SMILES | MIC
8 | C/C(=N\NC(=N)N)c1sc(-c2ccc(C#Cc3ccc(C)s3)cc2)nc1C | 8 µg/mL (≈ 20.3 µM)

System: Staphylococcus aureus
Assay: Antibacterial activity against vancomycin resistant Staphylococcus aureus VRS11a assessed as reduction in bacterial cell growth incubated for 18 to 20 hrs by broth microdilution method
Type: functional
Conditions: not given

Row | SMILES | MIC
9 | C/C(=N\NC(=N)N)c1sc(-c2ccc(C#Cc3ccc(C)s3)cc2)nc1C | 4 µg/mL (≈ 10.2 µM)

System: Staphylococcus aureus
Assay: Antibacterial activity against intracellular methicillin resistant Staphylococcus aureus USA400 infected in mouse J774 cells assessed as log10 reduction of viable bacterial cells incubated for 24 hrs followed by re-plating on tryptic soy agar plates at 37 degC for 18 to 22 hrs by broth microdilution assay
Type: functional
Conditions: not given

Row | SMILES | Activity
10 | C/C(=N\NC(=N)N)c1sc(-c2ccc(C#Cc3ccc(C)s3)cc2)nc1C | 0.21 log10CFU

System: Enterococcus faecalis
Assay: Antibacterial activity against vancomycin resistant Enterococcus faecalis ATCC 51299 assessed as reduction in bacterial cell growth incubated for 18 to 20 hrs by broth microdilution method
Type: functional
Conditions: not given

Row | SMILES | MIC
11 | C/C(=N\NC(=N)N)c1sc(-c2ccc(C#Cc3ccc(C)s3)cc2)nc1C | 16 µg/mL (≈ 40.7 µM)

System: Enterococcus faecium
Assay: Antibacterial activity against vancomycin resistant Enterococcus faecium ATCC 700221 assessed as reduction in bacterial cell growth incubated for 18 to 20 hrs by broth microdilution method
Type: functional
Conditions: not given

Row | SMILES | MIC
12 | C/C(=N\NC(=N)N)c1sc(-c2ccc(C#Cc3ccc(C)s3)cc2)nc1C | 2 µg/mL (≈ 5.08 µM)

System: Listeria monocytogenes
Assay: Antibacterial activity against Listeria monocytogenes ATCC 19111 assessed as reduction in bacterial cell growth incubated for 18 to 20 hrs by broth microdilution method
Type: functional
Conditions: not given

Row | SMILES | MIC
13 | C/C(=N\NC(=N)N)c1sc(-c2ccc(C#Cc3ccc(C)s3)cc2)nc1C | 8 µg/mL (≈ 20.3 µM)

System: Streptococcus pneumoniae
Assay: Antibacterial activity against Cephalosporin resistant Streptococcus pneumoniae ATCC 51916 assessed as reduction in bacterial cell growth incubated for 18 to 20 hrs by broth microdilution method
Type: functional
Conditions: not given

Row | SMILES | MIC
14 | C/C(=N\NC(=N)N)c1sc(-c2ccc(C#Cc3ccc(C)s3)cc2)nc1C | 8 µg/mL (≈ 20.3 µM)

System: Streptococcus pneumoniae
Assay: Antibacterial activity against Methicillin resistant Streptococcus pneumoniae ATCC 700677 assessed as reduction in bacterial cell growth incubated for 18 to 20 hrs by broth microdilution method
Type: functional
Conditions: not given

Row | SMILES | MIC
15 | C/C(=N\NC(=N)N)c1sc(-c2ccc(C#Cc3ccc(C)s3)cc2)nc1C | 8 µg/mL (≈ 20.3 µM)

System: Staphylococcus aureus
Assay: Bactericidal activity against Staphylococcus aureus ATCC 6538 assessed as reduction in bacterial cell growth incubated for 18 to 20 hrs followed by re-plating on tryptic soy agar plates at 37 degC for 18 hrs by broth microdilution assay
Type: functional
Conditions: not given

Row | SMILES | MBC
16 | C/C(=N\NC(=N)N)c1sc(-c2ccc(C#Cc3ccc(C)s3)cc2)nc1C | 4 µg/mL (≈ 10.2 µM)

System: Staphylococcus aureus
Assay: Bactericidal activity against Staphylococcus aureus NRS107 assessed as reduction in bacterial cell growth incubated for 18 to 20 hrs followed by re-plating on tryptic soy agar plates at 37 degC for 18 hrs by broth microdilution assay
Type: functional
Conditions: not given

Row | SMILES | MBC
17 | C/C(=N\NC(=N)N)c1sc(-c2ccc(C#Cc3ccc(C)s3)cc2)nc1C | 4 µg/mL (≈ 10.2 µM)

System: Staphylococcus aureus
Assay: Bactericidal activity against methicillin resistant Staphylococcus aureus NRS119 assessed as reduction in bacterial cell growth incubated for 18 to 20 hrs followed by re-plating on tryptic soy agar plates at 37 degC for 18 hrs by broth microdilution assay
Type: functional
Conditions: not given

Row | SMILES | MBC
18 | C/C(=N\NC(=N)N)c1sc(-c2ccc(C#Cc3ccc(C)s3)cc2)nc1C | 4 µg/mL (≈ 10.2 µM)

System: Staphylococcus aureus
Assay: Bactericidal activity against methicillin-resistant Staphylococcus aureus USA300 assessed as reduction in bacterial cell growth incubated for 18 to 20 hrs followed by re-plating on tryptic soy agar plates at 37 degC for 18 hrs by broth microdilution assay
Type: functional
Conditions: not given

Row | SMILES | MBC
19 | C/C(=N\NC(=N)N)c1sc(-c2ccc(C#Cc3ccc(C)s3)cc2)nc1C | 16 µg/mL (≈ 40.7 µM)

System: Staphylococcus aureus
Assay: Bactericidal activity against vancomycin resistant Staphylococcus aureus VRS10 assessed as reduction in bacterial cell growth incubated for 18 to 20 hrs followed by re-plating on tryptic soy agar plates at 37 degC for 18 hrs by broth microdilution assay
Type: functional
Conditions: not given

Row | SMILES | MBC
20 | C/C(=N\NC(=N)N)c1sc(-c2ccc(C#Cc3ccc(C)s3)cc2)nc1C | 8 µg/mL (≈ 20.3 µM)

System: Staphylococcus aureus
Assay: Bactericidal activity against vancomycin resistant Staphylococcus aureus VRS11a assessed as reduction in bacterial cell growth incubated for 18 to 20 hrs followed by re-plating on tryptic soy agar plates at 37 degC for 18 hrs by broth microdilution assay
Type: functional
Conditions: not given

Row | SMILES | MBC
21 | C/C(=N\NC(=N)N)c1sc(-c2ccc(C#Cc3ccc(C)s3)cc2)nc1C | 8 µg/mL (≈ 20.3 µM)

System: Staphylococcus aureus
Assay: Bactericidal activity against vancomycin resistant Staphylococcus aureus VRS12 assessed as reduction in bacterial cell growth incubated for 18 to 20 hrs followed by re-plating on tryptic soy agar plates at 37 degC for 18 hrs by broth microdilution assay
Type: functional
Conditions: not given

Row | SMILES | MBC
22 | C/C(=N\NC(=N)N)c1sc(-c2ccc(C#Cc3ccc(C)s3)cc2)nc1C | 16 µg/mL (≈ 40.7 µM)

System: Enterococcus faecalis
Assay: Bactericidal activity against vancomycin resistant Enterococcus faecalis ATCC 51299 assessed as reduction in bacterial cell growth incubated for 18 to 20 hrs followed by re-plating on tryptic soy agar plates at 37 degC for 18 hrs by broth microdilution assay
Type: functional
Conditions: not given

Row | SMILES | MBC
23 | C/C(=N\NC(=N)N)c1sc(-c2ccc(C#Cc3ccc(C)s3)cc2)nc1C | 64 µg/mL (≈ 163 µM)

System: Enterococcus faecium
Assay: Bactericidal activity against vancomycin resistant Enterococcus faecium ATCC 700221 assessed as reduction in bacterial cell growth incubated for 18 to 20 hrs followed by re-plating on tryptic soy agar plates at 37 degC for 18 hrs by broth microdilution assay
Type: functional
Conditions: not given

Row | SMILES | MBC
24 | C/C(=N\NC(=N)N)c1sc(-c2ccc(C#Cc3ccc(C)s3)cc2)nc1C | 4 µg/mL (≈ 10.2 µM)

System: Listeria monocytogenes
Assay: Bactericidal activity against Listeria monocytogenes ATCC 19111 assessed as reduction in bacterial cell growth incubated for 18 to 20 hrs followed by re-plating on tryptic soy agar plates at 37 degC for 18 hrs by broth microdilution assay
Type: functional
Conditions: not given

Row | SMILES | MBC
25 | C/C(=N\NC(=N)N)c1sc(-c2ccc(C#Cc3ccc(C)s3)cc2)nc1C | 32 µg/mL (≈ 81.3 µM)

System: Streptococcus pneumoniae
Assay: Bactericidal activity against Cephalosporin resistant Streptococcus pneumoniae ATCC 51916 assessed as reduction in bacterial cell growth incubated for 18 to 20 hrs followed by re-plating on tryptic soy agar plates at 37 degC for 18 hrs by broth microdilution assay
Type: functional
Conditions: not given

Row | SMILES | MBC
26 | C/C(=N\NC(=N)N)c1sc(-c2ccc(C#Cc3ccc(C)s3)cc2)nc1C | 16 µg/mL (≈ 40.7 µM)

System: Acinetobacter baumannii
Assay: Antibacterial activity against Acinetobacter baumannii ATCC 19606 assessed as reduction in bacterial cell growth incubated for 18 to 20 hrs by broth microdilution method
Type: functional
Conditions: not given

Row | SMILES | MIC
27 | C/C(=N\NC(=N)N)c1sc(-c2ccc(C#Cc3ccc(C)s3)cc2)nc1C | 32 µg/mL (≈ 81.3 µM)

System: Escherichia coli
Assay: Antibacterial activity against Escherichia coli BW25113 assessed as reduction in bacterial cell growth incubated for 18 to 20 hrs by broth microdilution method
Type: functional
Conditions: not given

Row | SMILES | MIC
28 | C/C(=N\NC(=N)N)c1sc(-c2ccc(C#Cc3ccc(C)s3)cc2)nc1C | 64 µg/mL (≈ 163 µM)

System: Escherichia coli
Assay: Antibacterial activity against Escherichia coli JW55031 harboring deltatolC mutant assessed as reduction in bacterial cell growth incubated for 18 to 20 hrs by broth microdilution method
Type: functional
Conditions: not given

Row | SMILES | MIC
29 | C/C(=N\NC(=N)N)c1sc(-c2ccc(C#Cc3ccc(C)s3)cc2)nc1C | 32 µg/mL (≈ 81.3 µM)

System: Pseudomonas aeruginosa
Assay: Antibacterial activity against Pseudomonas aeruginosa ATCC 15442 assessed as reduction in bacterial cell growth incubated for 18 to 20 hrs by broth microdilution method
Type: functional
Conditions: not given

Row | SMILES | MIC
30 | C/C(=N\NC(=N)N)c1sc(-c2ccc(C#Cc3ccc(C)s3)cc2)nc1C | > 64 µg/mL

System: Acinetobacter baumannii
Assay: Bactericidal activity against Acinetobacter baumannii ATCC 19606 assessed as reduction in bacterial cell growth incubated for 18 to 20 hrs followed by re-plating on tryptic soy agar plates at 37 degC for 18 hrs by broth microdilution assay
Type: functional
Conditions: not given

Row | SMILES | MBC
31 | C/C(=N\NC(=N)N)c1sc(-c2ccc(C#Cc3ccc(C)s3)cc2)nc1C | 64 µg/mL (≈ 163 µM)

System: Escherichia coli
Assay: BActericidal activity against Escherichia coli BW25113 assessed as reduction in bacterial cell growth incubated for 18 to 20 hrs followed by re-plating on tryptic soy agar plates at 37 degC for 18 hrs by broth microdilution assay
Type: functional
Conditions: not given

Row | SMILES | MBC
32 | C/C(=N\NC(=N)N)c1sc(-c2ccc(C#Cc3ccc(C)s3)cc2)nc1C | > 64 µg/mL

System: Pseudomonas aeruginosa
Assay: Bactericidal activity against Pseudomonas aeruginosa ATCC 15442 assessed as reduction in bacterial cell growth incubated for 18 to 20 hrs followed by re-plating on tryptic soy agar plates at 37 degC for 18 hrs by broth microdilution assay
Type: functional
Conditions: not given

Row | SMILES | MBC
33 | C/C(=N\NC(=N)N)c1sc(-c2ccc(C#Cc3ccc(C)s3)cc2)nc1C | > 64 µg/mL

System: J774
Assay: Cytotoxicity against mouse J774 assessed as reduction in cell viability at 16 ug/ml incubated for 24 hrs by MTS assay
Type: cell-based
Conditions: j774, 24 h

Row | SMILES | Activity
34 | C/C(=N\NC(=N)N)c1sc(-c2ccc(C#Cc3ccc(C)s3)cc2)nc1C | Non-Toxic

System: not listed separately
Assay: Solubility of compound in PBS after 2 hrs by turbidity based absorbance analysis
Type: physicochemical
Conditions: not given

Row | SMILES | solubility kinetic at 2 h
35 | C/C(=N\NC(=N)N)c1sc(-c2ccc(C#Cc3ccc(C)s3)cc2)nc1C | 12 µM (≈ 4.72 µg/mL)
